Laboratory results from patent US7235379B2, “Method and medium for the detection/identification of microorgranisms with esterase activity” (Bio Merieux, priority 2000, dated 2007).
Structures can show the parent of a compound that is named as a salt. Where two headings read alike, the source gives them in different places.

Key:
[1] = tested on: Salmonella typhimurium 010; assay: Ex.1 colony coloration, 5-bromo-3-indolyl nonanoate, DMSO/Tween 20, MacConkey; format: cell-based
[2] = tested on: Pseudomonas aeruginosa 165; assay: as above; format: cell-based
[3] = tested on: Salmonella paratyphi A 006
Procedure: (§1) The esterase substrate tested is 5-bromo-3-indolyl nonanoate. A 25 g/l stock solution of substrate is prepared in methanol to which 5 g/l of bile salts have been added. A sufficient volume is added to a supercooled MacConkey medium (without neutral red) to give a substrate concentration of 500 mg/l.
(§2) Microorganisms originating from the Applicant's collection were inoculated onto this medium from a 0.5 McFarland suspension by isolation in three quadrants. The dishes were incubated at 37° C. for 48 hours. The colonies formed were examined visually after 24 and 48 hours of incubation. The coloration of these colonies and the intensity of this coloration were noted.
(§3) Note: In the above Examples, the numbers following the strains correspond to the number of each strain referenced in the Applicant's collection. The intensity of coloration corresponds to an arbitrary scale defined as follows: […]

Salmonella spp. 017 [4] = tested on: Salmonella spp. 017
Procedure: as §1, §2, §3

Listeria innocua 029 = assay: Ex.3 colony coloration, 5-bromo-4-chloro-3-indolyl nonanoate 250 mg/l, DMSO/Tween 20; format: cell-based; note: key: 0: no activity; 0.1: trace of coloration; 0.5: very pale coloration; 1: distinct coloration of low intensity; 2: clear coloration of medium intensity; 3: intense coloration; 4: very intense coloration
[5] = tested on: Salmonella paratyphi A 006; remark: listed apart in the source
Procedure: (§4) The esterase substrate tested is 5-bromo-4-chloro-3-indolyl nonanoate. A 40 g/l stock solution of substrate is prepared in a mixture of 40% dimethyl sulfoxide and 60% Tween 20. A sufficient volume is added to a supercooled MacConkey medium (without neutral red) to give a substrate concentration of 250 mg/l.
as §2, §3

Salmonella spp. 017 [6] = tested on: Salmonella spp. 017; remark: listed apart in the source
Procedure: as §4, §2, §3

[7] = tested on: Pseudomonas aeruginosa 165; assay: Ex.3 colony coloration, 5-bromo-4-chloro-3-indolyl nonanoate 250 mg/l, DMSO/Tween 20; format: cell-based; note: key: 0: no activity; 0.1: trace of coloration; 0.5: very pale coloration; 1: distinct coloration of low intensity; 2: clear coloration of medium intensity; 3: intense coloration; 4: very intense coloration
Candida tropicalis 030 = assay: as above; format: cell-based; note: key: 0: no activity; 0.1: trace of coloration; 0.5: very pale coloration; 1: distinct coloration of low intensity; 2: clear coloration of medium intensity; 3: intense coloration; 4: very intense coloration
Hafnia alvei 025 = assay: Ex.4 colony coloration, 5-bromo-3-indolyl nonanoate, DMSO/Tween 20, MacConkey; format: cell-based; design: key: —: absence of colour or intensity; conditions: 8 ml/l Tergitol 4
[8] = tested on: bacterial strains exhibiting an esterase activity; conditions: between 2 and 16 ml/l, more precisely between 4 and 8 ml/l
Procedure: The esterase substrate tested is 5-bromo-3-indolyl nonanoate. A 40 g/l stock solution of substrate is prepared in a mixture of 40% dimethyl sulfoxide and 60% Tween 20. A sufficient volume is added to a supercooled MacConkey medium (without neutral red) to give a substrate concentration of 500 mg/l.
as §2

[9] = tested on: bacterial strains exhibiting an esterase activity; conditions: between 2 and 16 ml/l, more precisely between 4 and 8 ml/l; remark: listed apart in the source
Procedure: as §1, §2

[10] = tested on: Gram-positive bacteria or yeasts
Procedure: as §4, §2

Structure (SMILES): CCCCC(CC)CCC(CC(C)C)OS(=O)(=O)O (stereo not shown) [Tergitol 4, 7-ethyl-2-methyl-4-undecanoate hydrogensulfate or its sodium salt]
- color ([1]; 2 ml/l, 24 h): gray
- intensity of coloration ([1]; 2 ml/l, 24 h): 2
- color ([1]; 2 ml/l, 48 h): gray
- intensity of coloration ([1]; 2 ml/l, 48 h): 2.5
- color ([1]; 4 ml/l, 24 h): gray
- intensity of coloration ([1]; 4 ml/l, 24 h): 3
- color ([1]; 4 ml/l, 48 h): gray
- intensity of coloration ([1]; 4 ml/l, 48 h): 3
- color ([1]; 8 ml/l, 24 h): gray
- intensity of coloration ([1]; 8 ml/l, 24 h): 3.5
- color ([1]; 8 ml/l, 48 h): gray
- intensity of coloration ([1]; 8 ml/l, 48 h): 3.5
- color ([1]; 16 ml/l, 24 h): gray
- intensity of coloration ([1]; 16 ml/l, 24 h): 3.5
- color ([1]; 16 ml/l, 48 h): gray
- intensity of coloration ([1]; 16 ml/l, 48 h): 4
- color ([2]; 2 ml/l, 24 h): gray
- intensity of coloration ([2]; 2 ml/l, 24 h): 3.5
- color ([2]; 2 ml/l, 48 h): gray
- intensity of coloration ([2]; 2 ml/l, 48 h): 3.5
- color ([2]; 4 ml/l, 24 h): gray
- intensity of coloration ([2]; 4 ml/l, 24 h): 4
- color ([2]; 4 ml/l, 48 h): gray
- intensity of coloration ([2]; 4 ml/l, 48 h): 4
- color ([2]; 8 ml/l, 24 h): gray
- intensity of coloration ([2]; 8 ml/l, 24 h): 4
- color ([2]; 8 ml/l, 48 h): gray
- intensity of coloration ([2]; 8 ml/l, 48 h): 4
- color ([2]; 16 ml/l, 24 h): gray
- intensity of coloration ([2]; 16 ml/l, 24 h): 4
- color ([2]; 16 ml/l, 48 h): gray
- intensity of coloration ([2]; 16 ml/l, 48 h): 4
- color ([3]; 2 ml/l, 24 h): gray
- intensity of coloration ([3]; 2 ml/l, 24 h): 0.1
- color ([3]; 2 ml/l, 48 h): gray
- intensity of coloration ([3]; 2 ml/l, 48 h): 0.5
- color ([3]; 4 ml/l, 24 h): gray
- intensity of coloration ([3]; 4 ml/l, 24 h): 0.1
- color ([3]; 4 ml/l, 48 h): gray
- intensity of coloration ([3]; 4 ml/l, 48 h): 1
- color (Salmonella spp. 017 [4]; 2 ml/l, 24 h): gray
- intensity of coloration (Salmonella spp. 017 [4]; 2 ml/l, 24 h): 1
- color (Salmonella spp. 017 [4]; 2 ml/l, 48 h): gray
- intensity of coloration (Salmonella spp. 017 [4]; 2 ml/l, 48 h): 1.5
- color (Salmonella spp. 017 [4]; 4 ml/l, 24 h): gray
- intensity of coloration (Salmonella spp. 017 [4]; 4 ml/l, 24 h): 1
- color (Salmonella spp. 017 [4]; 4 ml/l, 48 h): gray
- intensity of coloration (Salmonella spp. 017 [4]; 4 ml/l, 48 h): 1.5
- color (Salmonella spp. 017 [4]; 8 ml/l, 24 h): gray
- intensity of coloration (Salmonella spp. 017 [4]; 8 ml/l, 24 h): 1
- color (Salmonella spp. 017 [4]; 8 ml/l, 48 h): gray
- intensity of coloration (Salmonella spp. 017 [4]; 8 ml/l, 48 h): 1.5
- color (Salmonella spp. 017 [4]; 16 ml/l, 24 h): gray
- intensity of coloration (Salmonella spp. 017 [4]; 16 ml/l, 24 h): 1
- color (Salmonella spp. 017 [4]; 16 ml/l, 48 h): gray
- intensity of coloration (Salmonella spp. 017 [4]; 16 ml/l, 48 h): 1.5
- intensity of coloration (Listeria innocua 029; 0.001 ml/l, 24 h): 0.1
- intensity of coloration (Listeria innocua 029; 0.001 ml/l, 48 h): 2
- intensity of coloration (Listeria innocua 029; 0.01 ml/l, 24 h): 0.1
- intensity of coloration (Listeria innocua 029; 0.01 ml/l, 48 h): 2
- intensity of coloration (Listeria innocua 029; 0.1 ml/l, 24 h): 0.1
- intensity of coloration (Listeria innocua 029; 0.1 ml/l, 48 h): 2
- intensity of coloration (Listeria innocua 029; 1 ml/l (1st col), 24 h): 0.1
- intensity of coloration (Listeria innocua 029; 1 ml/l (1st col), 48 h): 2
- intensity of coloration (Listeria innocua 029; 1 ml/l (2nd col), 24 h): 0.1
- intensity of coloration (Listeria innocua 029; 1 ml/l (2nd col), 48 h): 2
- intensity of coloration ([5]; 0.001 ml/l, 24 h): 0.1
- intensity of coloration ([5]; 0.001 ml/l, 48 h): 0.5
- intensity of coloration ([5]; 0.01 ml/l, 24 h): 0.1
- intensity of coloration ([5]; 0.01 ml/l, 48 h): 1
- intensity of coloration ([5]; 0.1 ml/l, 24 h): 0.1
- intensity of coloration ([5]; 0.1 ml/l, 48 h): 0.5
- intensity of coloration ([5]; 1 ml/l (1st col), 24 h): 0.5
- intensity of coloration ([5]; 1 ml/l (1st col), 48 h): 2
- intensity of coloration ([5]; 1 ml/l (2nd col), 24 h): 0.5
- intensity of coloration ([5]; 1 ml/l (2nd col), 48 h): 2
- intensity of coloration (Salmonella spp. 017 [6]; 0.001 ml/l, 24 h): 2
- intensity of coloration (Salmonella spp. 017 [6]; 0.001 ml/l, 48 h): 3
- intensity of coloration (Salmonella spp. 017 [6]; 0.01 ml/l, 24 h): 2
- intensity of coloration (Salmonella spp. 017 [6]; 0.01 ml/l, 48 h): 3
- intensity of coloration (Salmonella spp. 017 [6]; 0.1 ml/l, 24 h): 2
- intensity of coloration (Salmonella spp. 017 [6]; 0.1 ml/l, 48 h): 3
- intensity of coloration (Salmonella spp. 017 [6]; 1 ml/l (1st col), 24 h): 2
- intensity of coloration (Salmonella spp. 017 [6]; 1 ml/l (1st col), 48 h): 3
- intensity of coloration (Salmonella spp. 017 [6]; 1 ml/l (2nd col), 24 h): 2
- intensity of coloration (Salmonella spp. 017 [6]; 1 ml/l (2nd col), 48 h): 3
- intensity of coloration ([7]; 0.001 ml/l, 24 h): 0.1
- intensity of coloration ([7]; 0.001 ml/l, 48 h): 0.5
- intensity of coloration ([7]; 0.01 ml/l, 24 h): 0.5
- intensity of coloration ([7]; 0.01 ml/l, 48 h): 1
- intensity of coloration ([7]; 0.1 ml/l, 24 h): 0.1
- intensity of coloration ([7]; 0.1 ml/l, 48 h): 0.5
- intensity of coloration ([7]; 1 ml/l (1st col), 24 h): 0.5
- intensity of coloration ([7]; 1 ml/l (1st col), 48 h): 0.5
- intensity of coloration ([7]; 1 ml/l (2nd col), 24 h): 0.5
- intensity of coloration ([7]; 1 ml/l (2nd col), 48 h): 1
- intensity of coloration (Candida tropicalis 030; 0.001 ml/l, 24 h): 2
- intensity of coloration (Candida tropicalis 030; 0.001 ml/l, 48 h): 3
- intensity of coloration (Candida tropicalis 030; 0.01 ml/l, 24 h): 2
- intensity of coloration (Candida tropicalis 030; 0.01 ml/l, 48 h): 3
- intensity of coloration (Candida tropicalis 030; 0.1 ml/l, 24 h): 2
- intensity of coloration (Candida tropicalis 030; 0.1 ml/l, 48 h): 3
- intensity of coloration (Candida tropicalis 030; 1 ml/l (1st col), 24 h): 0.5
- intensity of coloration (Candida tropicalis 030; 1 ml/l (1st col), 48 h): 3
- intensity of coloration (Candida tropicalis 030; 1 ml/l (2nd col), 24 h): 0.5
- intensity of coloration (Candida tropicalis 030; 1 ml/l (2nd col), 48 h): 3
- color (Hafnia alvei 025; 24 h): —
- color (Hafnia alvei 025; 48 h): —
- effect on intensity of coloration [8]: significantly increases the intensity of coloration
- effect on intensity of coloration [9]: significantly increases the intensity of coloration
- effect on the expression of the esterase activity ([10]; 0.001 to 1 ml/l tested): positive effect
- growth on culture medium ([10]; excessive Tergitol 4 concentrations): cannot develop on a culture medium
